Laboratory results from paper PMC5370276, “Induction of Osteopontin by Dengue Virus-3 Infection in THP-1 Cells: Inhibition of the Synthesis by Brefelamide and Its Derivative” (Frontiers in Microbiology, 2017).

Columns and labels:
DENV-infected 293T cells = assay: Toxicity to DENV-infected 293T cells; assay type: cell-based, human; details: dose-dependent
Description: (§1) THP-1 and 293T cells were seeded in a Nunc cell culture tube and a 12-well cell culture plate, respectively, at 1.8 × 10^5/well. After overnight incubation, cells were washed and incubated with fresh medium containing DENV-3 at an MOI of 0.1 or incubated without virus for 1.5 h. The inoculum was then removed and cells were washed twice with fresh medium, and compounds A and B were added at final concentrations of 3, 10, and 30 μM. […] On day 3 post-infection, culture supernatants and cell lysates were collected. Cell viability was evaluated by Trypan Blue exclusion and DENV copy number was determined by RT-qPCR. OPN mRNA and protein levels were quantified by RT-qPCR and ELISA, respectively.

OPN mRNA in THP-1 cells = assay: OPN mRNA expression by RT-qPCR in uninfected and DENV-3-infected THP-1 cells; assay type: cell-based, human; details: 72 h
Description: Glyceraldehyde 3-phosphate dehydrogenase (GAPDH) was used as reference gene for normalization of expression levels and was amplified with the following forward and reverse primers: GAPDH-F, 5′-[…]-3′ and GAPDH-R, 5′-[…]-3′. The Taqman probe was as follows: 5′[FAM]–[…]–[BHQ1]3′. A forward and reverse primer set (SPP1-F, 5′-[…]-3′ and SPP1-R, 5′-[…]-3′) and a probe (SPP1-P, 5′-[FAM]–[…] GAAGT–[BHQ1]3′) (Takara Bio) were used to quantify OPN mRNA ([Qin et al., 2015]). The mean fold change in OPN mRNA level was calculated as fold difference = 2^-ΔΔCt.
(§2) Changes in OPN expression in uninfected THP-1 and 293T cell lines in response to treatment with compounds A and B were assessed. Each well in a 12-well tissue culture plate was seeded with 1.8 × 10^5 cells. After overnight incubation, the compounds were added at final concentrations of 3–100 μM. Cells were harvested 3 days later. OPN mRNA and protein levels were quantified by RT-qPCR and ELISA, respectively, to determine the optimal concentration.
THP-1 and 293T cells were seeded in a Nunc cell culture tube and a 12-well cell culture plate, respectively, at 1.8 × 10^5/well. […] Cell viability was evaluated by Trypan Blue exclusion and DENV copy number was determined by RT-qPCR. OPN mRNA and protein levels were quantified by RT-qPCR and ELISA, respectively.

astrocytoma cells = tested on: astrocytoma cells; set-up: method as in Kikuchi et al., 2005; Honma et al., 2009; details: by inhibiting ERK phosphorylation; ref Kikuchi et al., 2005; Honma et al., 2009; cited from earlier work
[1] = tested on: Osteopontin (OPN) in THP-1 cells; assay: OPN protein level in culture supernatant by ELISA, THP-1 cells; assay type: cell-based, human
Description: (§3) Osteopontin levels in the cell culture supernatant were quantified using an ELISA kit (R&D Systems, Minneapolis, MN, USA) according to the manufacturer’s instructions and as previously reported ([Chagan-Yasutan et al., 2014]). The supernatant was diluted eightfold for THP-1 cells and two–fourfold for 293T cells, and the final value was calculated as [drawing 1] and was expressed as pg/ml/10^6 cells.
as §2, §1

293T cells = assay: Cytotoxicity, CellTiter 96 Aqueous (MTS) cell proliferation assay; assay type: cell-based, human; details: 24 h incubation
Description: Both compounds were dissolved in dimethyl sulfoxide (DMSO) at a concentration of 50 mM and stored at -20°C. Aliquots of the stock solutions were further diluted with appropriate growth medium to the desired concentrations before use. […] The following day, 10 μl of compounds A and B at concentrations ranging from 0.0001 to 10 mM were added to each well. After incubation for 24 h, 20 μl per well of 3-(4,5-dimethyl-2-yl)-5-(3-carboxymethoxyphenyl)-2-(4-sulfophenyl)-2H-tetrazolium salt/phenazine methosulfate solution was added to each well, followed by incubation for 4 h. The absorbance at 490 nm was recorded with an ELISA plate reader and the IC50 value was determined by identifying the X-axis value corresponding to one-half of the difference between the maximum and minimum absorbance values using GraphPad Prism v.6 software (GraphPad Inc., San Diego, CA, USA).

OPN mRNA in 293T cells = assay: OPN mRNA expression by RT-qPCR in uninfected and DENV-3-infected 293T cells; assay type: cell-based, human; details: uninfected 293T cells, 3-30 μM, 72 h
[2] = tested on: DENV-infected THP-1 cells; assay: Toxicity to DENV-infected THP-1 cells; assay type: cell-based, human; details: dose-dependent
Description: as §1

DENV-3 [3] = assay: DENV RNA copy number by RT-qPCR in infected THP-1 cells; assay type: cell-based, Dengue virus-3; details: 72 h
Description: (§4) Viral copy number in culture supernatants and cell lysates was measured by RT-qPCR as previously described ([Chagan-Yasutan et al., 2013]) using the RNA UltraSense One-Step Quantitative RT-PCR System (Invitrogen, Carlsbad, CA, USA) and Thermal Cycler Dice Real Time System (Takara Bio, Otsu, Japan) according to the manufacturers’ protocols. Primers and hydrolysis probes specific to the 3′ untranslated region of each of the four DENV genotypes have been previously published ([Chagan-Yasutan et al., 2013]). The forward and reverse primers were as follows 5′-[…]-3′ and 5′-[…]-3′ ([Warrilow et al., 2002]). The TaqMan probe was labeled at the 5′ and 3′ ends with a 6-carboxyfluorescein (FAM) reporter and Black Hole quencher (BHQ)-1 (i.e., 5′[FAM]–[…]–[BHQ1]3′). The copy numbers obtained by DENV RT-qPCR were linearly associated with plaque numbers (data not shown).
as §1

[4] = tested on: Osteopontin (OPN) in 293T cells; assay: OPN protein level in culture supernatant by ELISA, 293T cells; assay type: cell-based, human
Description: as §3, §2
as §1, with “The inoculum was then removed and cells were washed twice with fresh medium, and compounds A and B were added at final concentrations of 3, 10, and 30 μM.” left out

THP-1 cells = assay: Cytotoxicity, CellTiter 96 Aqueous (MTS) cell proliferation assay; assay type: cell-based, human; details: 24 h incubation
Description: (§5) Brefelamide, henceforth referred to as compound A ([Kikuchi et al., 2005]), is an aromatic amide isolated from methanol extracts of Dictyostelium brefeldianum and D. giganteum slime mold fruiting bodies; its derivative, henceforth referred to as compound B ([Kikuchi et al., 2005]; [Zhang et al., 2016b]), contains a methyl ether group (-OCH3). Both compounds were dissolved in dimethyl sulfoxide (DMSO) at a concentration of 50 mM and stored at -20°C. Aliquots of the stock solutions were further diluted with appropriate growth medium to the desired concentrations before use. […] THP-1 and 293T cells were seeded in 96-well tissue culture plates at a density of 1.8 × 10^4/well in 90 μl of the appropriate growth medium and incubated for 24 h at 37°C in a humidified 5% CO2 atmosphere. The following day, 10 μl of compounds A and B at concentrations ranging from 0.0001 to 10 mM were added to each well. […] The absorbance at 490 nm was recorded with an ELISA plate reader and the IC50 value was determined by identifying the X-axis value corresponding to one-half of the difference between the maximum and minimum absorbance values using GraphPad Prism v.6 software (GraphPad Inc., San Diego, CA, USA).

DENV-3 [5] = assay: DENV RNA copy number by RT-qPCR in infected 293T cells; assay type: cell-based, Dengue virus-3; details: 0.3 μM
Description: as §4
THP-1 and 293T cells were seeded in a Nunc cell culture tube and a 12-well cell culture plate, respectively, at 1.8 × 10^5/well. After overnight incubation, cells were washed and incubated with fresh medium containing DENV-3 at an MOI of 0.1 or incubated without virus for 1.5 h. […] Cell viability was evaluated by Trypan Blue exclusion and DENV copy number was determined by RT-qPCR. OPN mRNA and protein levels were quantified by RT-qPCR and ELISA, respectively.

[6] = Cytotoxicity, CellTiter 96 Aqueous (MTS) cell proliferation assay; assay type: cell-based, human; details: human, THP-1 cells, 24 h incubation
Description: as §5

[7] = DENV-infected THP-1 cells, MOI 0.1, 3 days

| Compound | Toxic concentration (DENV-infected 293T cells) | OPN mRNA expression (OPN mRNA in THP-1 cells; DENV-infected THP-1 cells, MOI 0.1, 3-30 μM) | OPN mRNA expression (OPN mRNA in THP-1 cells; uninfected THP-1 cells, 3-30 μM) | Proliferation of astrocytoma cells (astrocytoma cells) | OPN level in supernatant after treatment ([1]; DENV-infected THP-1 cells, 10 μM compound, 3 days, infected control 67848.9) | OPN levels in supernatant [1, 7] | OPN levels in supernatant ([1]; uninfected THP-1 cells, 3 days) | IC50 (293T cells) | OPN mRNA levels (OPN mRNA in 293T cells) | Toxic concentration [2] | Suppression of DENV RNA levels relative to the control (DENV-3 [3]; THP-1 cell culture supernatant, 10 μM) | Suppression of DENV RNA levels (DENV-3 [3]; THP-1 cell lysates, 10 μM) | OPN expression (protein, supernatant) ([4]; DENV-infected 293T cells, MOI 0.1, 3 days) | OPN expression (protein, supernatant) ([4]; uninfected 293T cells, 3 days) | IC50 (THP-1 cells) | Viral replication (DENV RNA) (DENV-3 [5]; 293T cell lysates) | Viral replication (DENV RNA) (DENV-3 [5]; 293T culture supernatant) | Virus replication (DENV RNA copy number) (DENV-3 [3]; THP-1 culture supernatant, 0.3-1 μM) | OPN production ([4]; DENV-infected 293T cells, 0.3 μM) | IC50 at 24 h [6] |
| --- | --- | --- | --- | --- | --- | --- | --- | --- | --- | --- | --- | --- | --- | --- | --- | --- | --- | --- | --- | --- |
| Nc1c(Oc2ccc(O)cc2)cccc1C(=O)CCNC(=O)c1ccc(O)cc1 [compound A, Brefelamide] | > 30 µM | inhibited OPN mRNA expression in a dose-dependent manner | had no effect | suppressed the proliferation | 12247.9 pg/ml/10^6 cells | dose-dependent reduction | had no effect | 32.2 µM | reduced OPN mRNA levels | > 30 µM | 75% | not lysates | did not inhibit | did not inhibit | 102 µM |  |  |  |  |  |
| CCC(C)(C)C(=O)O[C@H]1C[C@@H](C)C=C2C=C[C@H](C)[C@H](CC[C@@H]3C[C@@H](O)CC(=O)O3)[C@H]21 [simvastatin, reference compound] |  |  |  |  |  | had no effect |  |  |  |  |  |  |  |  |  | inhibited viral replication | inhibited viral replication | had no effect | suppressed OPN production | 14.1 µM |
